Data as given in ChEMBL document CHEMBL5325431, “Synthesis of thieno[3,2-e]pyrrolo[1,2-a]pyrimidine derivatives and their precursors containing 2-aminothiophenes fragments as anticancer agents for therapy of pulmonary metastatic melanoma” (Eur J Med Chem, 2023).
Calls of active or inactive are those of the source. The calls are words filed in the database; no cut-off is given here.

Assays:
B16-F10 [1] = test: Cytotoxicity against mouse B16-F10 cells assessed as reduction in cell viability at 5.5 uM incubated for 24 hrs by alamarblue staining based assay relative to control; assay type: functional
B16-F10 [2] = test: Cytotoxicity against mouse B16-F10 cells assessed as reduction in cell viability at 0.2 to 1.5 uM incubated for 24 hrs by alamarblue staining based assay relative to control; assay type: functional; conditions: dose 0.2-1.5 µM
B16-F10 [3] = test: Cytotoxicity against mouse B16-F10 cells assessed as cell death by measuring increase in red fluorescence at 0.5 to 10 uM by calcein AM/PI staining based confocal laser scanning microscopy analysis; assay type: functional; conditions: dose 0.5-10 µM
B16-F10 [4] = test: Cytotoxicity against mouse B16-F10 cells assessed as cell death by measuring increase in red fluorescence at 10 uM by calcein AM/PI staining based confocal laser scanning microscopy analysis; assay type: functional
B16-F10 [5] = test: Induction of apoptosis in mouse B16-F10 cells assessed as necrotic cells at 10 uM measured after 48 hrs by Annexin V-FITC/7-AAD staining based flow cytometric analysis relative to control; assay type: functional
B16-F10 [6] = test: Induction of apoptosis in mouse B16-F10 cells assessed as late apoptotic cells at 15 uM measured after 48 hrs by Annexin V-FITC/7-AAD staining based flow cytometric analysis relative to control; assay type: functional
B16-F10 [7] = test: Induction of apoptosis in mouse B16-F10 cells assessed as late apoptotic cells at 20 uM measured after 48 hrs by Annexin V-FITC/7-AAD staining based flow cytometric analysis relative to control; assay type: functional
CT26 = test: Cytotoxicity against mouse CT26 cells assessed as cell survival incubated for 24 hrs by alamarblue staining based analysis; assay type: functional; conditions: CT26, 24 h
[8] = Toxicity in C57BL/6 mouse implanted with mouse B16-F10 cells assessed as liver damage at 4.6 to 42 mg/kg, ip by H and E staining based analysis; assay type: organism-based; conditions: in vivo, dose 4.6-42 mg/kg
[9] = Toxicity in C57BL/6 mouse implanted with mouse B16-F10 cells assessed as heart damage at 4.6 to 42 mg/kg, ip by H and E staining based analysis; assay type: organism-based; conditions: in vivo, dose 4.6-42 mg/kg
B16-F10 [10] = test: Cytotoxicity against mouse B16-F10 cells assessed as reduction in cell viability at 1.5 uM incubated for 24 hrs by alamarblue staining based assay relative to control; assay type: functional
B16-F10 [11] = test: Cytotoxicity against mouse B16-F10 cells assessed as reduction in cell viability at 8.31 uM incubated for 24 hrs by alamarblue staining based assay relative to control; assay type: functional
B16-F10 [12] = test: Cytotoxicity against mouse B16-F10 cells assessed as reduction in cell viability at 8.3 uM incubated for 24 hrs by alamarblue staining based assay relative to control; assay type: functional

SMILES | Activity (B16-F10 [1]) [%] | Activity (B16-F10 [2]) [%] | Activity (B16-F10 [3]) | Activity (B16-F10 [4]) | Activity (B16-F10 [5]) [%] | Activity (B16-F10 [6]) [%] | Activity (B16-F10 [7]) [%] | IC50 (CT26) [µM] | Activity [8] | Activity [9] | Activity (B16-F10 [10]) [%] | Activity (B16-F10 [11]) [%] | Activity (B16-F10 [12]) [%]
COc1ccc(C(=O)/C=C2\C(=O)C(C#N)=C3NC(=O)c4c(sc5c4CCCCC5)N32)cc1 | 20 | 90 | Active | Active | 10.7 | 91.7 | 92 | 9.3 | Non-Toxic | Non-Toxic |  |  | 
CCOC(=O)c1c(NC(=C\C(=O)c2ccc(OC)cc2)/C([O-])=C(\C#N)C(N)=O)sc2c1CCCC2.[K+] |  |  | Active | Active | 14 | 94.3 | 95.1 | 4.3 | Non-Toxic | Non-Toxic | ~80 | 20 | 
CCOC(=O)c1c(N2C(N)=C(C#N)C(=O)/C2=C\C(=O)c2ccc(C)cc2)sc2c1CCCCC2 | 20 | 40 | Active | Active | 21.8 | 96.1 | 96.5 | 7.4 | Non-Toxic | Non-Toxic |  |  | 48
